# Experiments:
# Assay type in all cases: cell-based
# E. coli DH5α = assay: Antibacterial activity: MIC and growth curve against E. coli DH5α in 96-well plate; conditions: minimal inhibitory concentration against E. coli DH5α; 96-well plate, 5×10^5 CFU/mL, 37° C., judged after 8 h
# In short: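 MIC taken as lowest protein level with no bacterial growth, tracked by A600 every 30 min during 37 °C, 175 rpm culture. Two-fold protein series 50-12.5 μg/mL final, triplicate wells, against 5×10^5 CFU/mL of LB-washed mid-log cells.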
# Pseudomonas aeruginosa = assay: MIC against Gram-negative bacteria: Pseudomonas aeruginosa; conditions: 5×10^5 CFU/mL
# In short: (§1)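 Inocula prepared by growing LB cultures at 37° C to 0.5 McFarland, centrifuging at 4000×g, and resuspending in fresh medium. Final density 5×10^5 CFU/mL per well with two-fold dilutions of purified EGF domain protein; shaking incubation at 37° C.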
# Proteus vulgaris = assay: MIC against Gram-negative bacteria: Proteus vulgaris; conditions: 5×10^5 CFU/mL
# In short: as §1
# Enterobacter cloacae = assay: MIC against Gram-negative bacteria: Enterobacter cloacae; conditions: 5×10^5 CFU/mL
# In short: as §1
# Moraxella catarrhalis = assay: MIC against Gram-negative bacteria: Moraxella catarrhalis; conditions: 5×10^5 CFU/mL
# In short: as §1
# Klebsiella pneumonia = assay: MIC against Gram-negative bacteria: Klebsiella pneumonia; conditions: 5×10^5 CFU/mL
# In short: as §1
# E. coli BL21 = assay: MIC against Gram-negative bacteria: E. coli BL21; conditions: 5×10^5 CFU/mL
# In short: as §1
# Serratia marcescens = assay: MIC against Gram-negative bacteria: Serratia marcescens; conditions: 5×10^5 CFU/mL
# In short: as §1
# Aeromonas hydrophila = assay: MIC against Gram-negative bacteria: Aeromonas hydrophila; conditions: 5×10^5 CFU/mL
# In short: as §1
# Proteus mirabilis = assay: MIC against Gram-negative bacteria: Proteus mirabilis; conditions: 5×10^5 CFU/mL
# In short: as §1
# Citrobacter diversus = assay: MIC against Gram-negative bacteria: Citrobacter diversus; conditions: 5×10^5 CFU/mL
# In short: as §1
# [1] = Pseudomonas aeruginosa, 10 h cultivation at 37° C.
# [2] = Proteus vulgaris, 10 h cultivation at 37° C.
# [3] = Enterobacter cloacae, 10 h cultivation at 37° C.
# [4] = Moraxella catarrhalis, 10 h cultivation at 37° C.
# [5] = Klebsiella pneumonia, 10 h cultivation at 37° C.
# [6] = E. coli BL21, 10 h cultivation at 37° C.
# [7] = Serratia marcescens, 10 h cultivation at 37° C.
# [8] = Aeromonas hydrophila, 10 h cultivation at 37° C.
# [9] = Proteus mirabilis, 10 h cultivation at 37° C.
# [10] = Citrobacter diversus, 10 h cultivation at 37° C.
# [11] = Pseudomonas aeruginosa, 96-well plate, 37° C., 10 h
# [12] = Proteus vulgaris, 96-well plate, 37° C., 10 h
# [13] = Enterobacter cloacae, 96-well plate, 37° C., 10 h
# [14] = Moraxella catarrhalis, 96-well plate, 37° C., 10 h
# [15] = Klebsiella pneumonia, 96-well plate, 37° C., 10 h
# [16] = E. coli BL21, 96-well plate, 37° C., 10 h
# [17] = Serratia marcescens, 96-well plate, 37° C., 10 h
# [18] = Aeromonas hydrophila, 96-well plate, 37° C., 10 h
# [19] = Proteus mirabilis, 96-well plate, 37° C., 10 h
# [20] = Citrobacter diversus, 96-well plate, 37° C., 10 h
substance,measurement,setting,value
PRT1365 (SQLRCPNDCHSRGRCVEGKCVCEQGFKGYDCS; listed as Homo sapiens),MIC,E. coli DH5α,12.5 µg/mL
same,MIC against P. aeruginosa,Pseudomonas aeruginosa; [1],25 µg/mL
same,MIC against P. vulgaris,Proteus vulgaris; [2],25 µg/mL
same,MIC against E. cloacae,Enterobacter cloacae; [3],25 µg/mL
same,MIC against M. catarrhalis,Moraxella catarrhalis; [4],25 µg/mL
same,MIC against K. pneumonia,Klebsiella pneumonia; [5],50 µg/mL
same,MIC against E. coli BL21,E. coli BL21; [6],100 µg/mL
same,MIC against S. marcescens,Serratia marcescens; [7],12.5 µg/mL
same,MIC against A. hydrophila,Aeromonas hydrophila; [8],12.5 µg/mL
same,MIC against P. mirabilis,Proteus mirabilis; [9],12.5 µg/mL
same,MIC against C. diversus,Citrobacter diversus; [10],50 µg/mL
PRT36 (PVRDCSKDNGGCSKNFRCISDRKLDSTGCVCPSGLSPMKDSSGCY; listed as Homo sapiens),MIC,E. coli DH5α,12.5 µg/mL
same,MIC (μg/mL) P. aeruginosa,Pseudomonas aeruginosa; [11],12.5 µg/mL
same,MIC (μg/mL) P. vulgaris,Proteus vulgaris; [12],12.5 µg/mL
same,MIC (μg/mL) E. cloacae,Enterobacter cloacae; [13],25 µg/mL
same,MIC (μg/mL) M. catarrhalis,Moraxella catarrhalis; [14],25 µg/mL
same,MIC (μg/mL) K. pneumonia,Klebsiella pneumonia; [15],12.5 µg/mL
same,MIC (μg/mL) E. coli BL21,E. coli BL21; [16],25 µg/mL
same,MIC (μg/mL) S. marcescens,Serratia marcescens; [17],25 µg/mL
same,MIC (μg/mL) A. hydrophila,Aeromonas hydrophila; [18],25 µg/mL
same,MIC (μg/mL) P. mirabilis,Proteus mirabilis; [19],25 µg/mL
same,MIC (μg/mL) C. diversus,Citrobacter diversus; [20],50 µg/mL
PRT1444 (HHIPCPEHYNGFCMHGKCEHSINMQEPSCRCDAGYTGQHCE; listed as Homo sapiens),MIC,E. coli DH5α,12.5 µg/mL
same,MIC against P. aeruginosa,Pseudomonas aeruginosa; [1],50 µg/mL
same,MIC against P. vulgaris,Proteus vulgaris; [2],50 µg/mL
same,MIC against E. cloacae,Enterobacter cloacae; [3],12.5 µg/mL
same,MIC against M. catarrhalis,Moraxella catarrhalis; [4],12.5 µg/mL
same,MIC against K. pneumonia,Klebsiella pneumonia; [5],25 µg/mL
same,MIC against E. coli BL21,E. coli BL21; [6],25 µg/mL
same,MIC against S. marcescens,Serratia marcescens; [7],25 µg/mL
same,MIC against A. hydrophila,Aeromonas hydrophila; [8],25 µg/mL
same,MIC against P. mirabilis,Proteus mirabilis; [9],25 µg/mL
same,MIC against C. diversus,Citrobacter diversus; [10],50 µg/mL
PRT1325 (TEDNCNGTCHTSANCLTNSDGTASCKCAAGFQGNGTICT; listed as Homo sapiens),MIC,E. coli DH5α,12.5 µg/mL
same,MIC against P. aeruginosa,Pseudomonas aeruginosa; [11],25 µg/mL
same,MIC against P. vulgaris,Proteus vulgaris; [12],12.5 µg/mL
same,MIC against E. cloacae,Enterobacter cloacae; [13],25 µg/mL
same,MIC against M. catarrhalis,Moraxella catarrhalis; [14],12.5 µg/mL
same,MIC against K. pneumonia,Klebsiella pneumonia; [15],12.5 µg/mL
same,MIC against E. coli BL21,E. coli BL21; [16],12.5 µg/mL
same,MIC against S. marcescens,Serratia marcescens; [17],25 µg/mL
same,MIC against A. hydrophila,Aeromonas hydrophila; [18],25 µg/mL
same,MIC against P. mirabilis,Proteus mirabilis; [19],25 µg/mL
same,MIC against C. diversus,Citrobacter diversus; [20],12.5 µg/mL
PRT531 (CDCNLEGVLPEICDAHGRCLCRPGVEGPRCDTCRSGFYSFPICQA; listed as Homo sapiens),MIC,E. coli DH5α,50 µg/mL
same,MIC against P. aeruginosa,"Pseudomonas aeruginosa; 96-well plate, 37° C., 10 h",12.5 µg/mL
same,MIC against P. vulgaris,"Proteus vulgaris; 96-well plate, 37° C., 10 h",12.5 µg/mL
same,MIC against E. cloacae,"Enterobacter cloacae; 96-well plate, 37° C., 10 h",50 µg/mL
same,MIC against M. catarrhalis,"Moraxella catarrhalis; 96-well plate, 37° C., 10 h",12.5 µg/mL
same,MIC against K. pneumonia,"Klebsiella pneumonia; 96-well plate, 37° C., 10 h",25 µg/mL
same,MIC against E. coli BL21,"E. coli BL21; 96-well plate, 37° C., 10 h",25 µg/mL
same,MIC against S. marcescens,"Serratia marcescens; 96-well plate, 37° C., 10 h",50 µg/mL
same,MIC against A. hydrophila,"Aeromonas hydrophila; 96-well plate, 37° C., 10 h",12.5 µg/mL
same,MIC against P. mirabilis,"Proteus mirabilis; 96-well plate, 37° C., 10 h",50 µg/mL
same,MIC against C. diversus,"Citrobacter diversus; 96-well plate, 37° C., 10 h",50 µg/mL
PRT1405 (PTTQCIDPQCGGRGICIMGSCACNSGYKGESCE; listed as Homo sapiens),MIC,E. coli DH5α,12.5 µg/mL
same,MIC against P. aeruginosa,Pseudomonas aeruginosa; [1],12.5 µg/mL
same,MIC against P. vulgaris,Proteus vulgaris; [2],50 µg/mL
same,MIC against E. cloacae,Enterobacter cloacae; [3],12.5 µg/mL
same,MIC against M. catarrhalis,Moraxella catarrhalis; [4],12.5 µg/mL
same,MIC against K. pneumonia,Klebsiella pneumonia; [5],12.5 µg/mL
same,MIC against E. coli BL21,E. coli BL21; [6],12.5 µg/mL
same,MIC against S. marcescens,Serratia marcescens; [7],12.5 µg/mL
same,MIC against A. hydrophila,Aeromonas hydrophila; [8],12.5 µg/mL
same,MIC against P. mirabilis,Proteus mirabilis; [9],12.5 µg/mL
same,MIC against C. diversus,Citrobacter diversus; [10],12.5 µg/mL
PRT723 (KERTCAENICEQNCTQLNEGGFICSCTAGFETNVFDRTSCL; listed as Homo sapiens),MIC,E. coli DH5α,25 µg/mL
same,MIC P. aeruginosa,"Pseudomonas aeruginosa; 96-well plate, 37° C., 10 h",100 µg/mL
same,MIC P. vulgaris,"Proteus vulgaris; 96-well plate, 37° C., 10 h",25 µg/mL
same,MIC E. cloacae,"Enterobacter cloacae; 96-well plate, 37° C., 10 h",50 µg/mL
same,MIC M. catarrhalis,"Moraxella catarrhalis; 96-well plate, 37° C., 10 h",12.5 µg/mL
same,MIC K. pneumonia,"Klebsiella pneumonia; 96-well plate, 37° C., 10 h",100 µg/mL
same,MIC E. coli BL21,"E. coli BL21; 96-well plate, 37° C., 10 h",50 µg/mL
same,MIC S. marcescens,"Serratia marcescens; 96-well plate, 37° C., 10 h",12.5 µg/mL
same,MIC A. hydrophila,"Aeromonas hydrophila; 96-well plate, 37° C., 10 h",12.5 µg/mL
same,MIC P. mirabilis,"Proteus mirabilis; 96-well plate, 37° C., 10 h",25 µg/mL
same,MIC C. diversus,"Citrobacter diversus; 96-well plate, 37° C., 10 h",25 µg/mL

# — patent US9833497B2, “Human originated EGF domain proteins and use of the same” (CHENGDU SOURCEBIO LIMITED-LIABILITY COMPANY, priority 2013, dated 2017)
